Patent US20210223252A1, “METHODS FOR PROTEOMIC PROFILING USING NON-NATURAL AMINO ACIDS” (California Institute of Technology, priority 2004, published 2021)

Experiments:
HEK293 cells [1] = experiment: Detection of newly synthesized proteins: AHA labelling, [3+2]cycloaddition with Biotin-PEO-Propargylamide, anti-Biotin Western blot; format: cell-based; details: HEK293 cells incubated 2 hrs with AHA in the presence of the protein synthesis inhibitor
Description: In embodiments using [3+2] Cycloaddition, the following exemplary protocol may be used. Briefly, AHA, Biotin-PEO-Propargylamide and the triazole ligand were prepared as described previously. The tandem featured alkyne tag was synthesized by GenScript Corporation. Biotin-Cyclooctyne is a generous gift from Carolyn Bertozzi. DIO-L-leucine was purchased from Sigma. In all culture experiments, growth medium was removed from HEK293 cells, whole neuronal cultures or isolated dendrites were replaced with HEPES-buffered solution (HBS) with 2.86 mM AHA, and 2.86 mM methionine for control experiments. After incubation at 37° C., 5% CO2, cells were washed with PBS-MC (1 mMMgCl2, 0.1 mM CaCl2 in PBS) to remove excess amounts of AHA and methionine. SNS and other biochemical fractions are incubated with 2.86 mM AHA or 2.86 mM methionine under agitation at 37° C. and washed in StimBuffer after incubation. […]
(§1) To show the specificity of this technique for the detection of newly synthesized proteins, HEK293 cells were incubated for 2 hrs with AHA in the presence or absence of a protein synthesis inhibitor (Anisomycin or Cycloheximide). […] The potential for increased protein degradation was measured by examining the ubiquitin signal strength on a Western blot from whole lysates of HEK293 cells, which were treated with AHA, methionine or incubation buffer for two hours.

[2] = system: dissociated hippocampal neurons; experiment: AHA toxicity by whole neuron morphology (GFP reporter); format: cell-based, rat; details: 2 hrs incubation
Description: Dissociated hippocampal neuron cultures were prepared from newborn rat pups (PO) as outlined in (Banker and Goslin, 1990), Neurons were plated at a density of 15,000-45,000 cells/cm^2 onto poly-D-lysine coated cell culture dishes or onto poly-D-lysine and growth factor reduced matrigel (BD Biosciences) coated polycarbonate nets with a pore size of 3 (Transwell, Corning) for the preparation of isolated dendrites. The cultures were maintained and allowed to mature in growth medium (Neurobasal-A supplemented with B27 and GlutaMAX-1) for 14 to 21 days before use. The use of this growth medium suppressed glial proliferation, which was even more reduced by application of Ara-C (5 μM final concentration). To supplement glial neurotrophic factors, 25% conditioned growth media from glial and cortical cultures were added to the growth media. Isolated dendrites were obtained from Transwell cultures by removing the cell body layer with a sterile cell lifter after change to HBS. For immunolabeling after AHA-incorporation and cycloaddition with BiotinCyclooctyne, neurons are fixed at room temperature with 4% paraformaldehyde for 20 minutes. […] Images are recorded through standard emission filters at contrast settings for which the crossover between the two channels is negligible. […]

[3] = system: E. coli and mammalian cells; experiment: Protein degradation upon introduction of AHA; format: cell-based; details: studies in E. coli and experiments in mammalian cells
HEK293 cells [4] = experiment: Ubiquitin signal on Western blot of whole lysates (protein degradation); format: cell-based; details: treated two hours
Description: as §1, with “Cycloheximide). After incubation, cells were lysed and subjected to [3+2]cycloaddition with the biotin-bearing alkyne-linker Biotin-PEO-Propargylamide, followed by Western blot analysis with an anti-Biotin-antibody.” for “Cycloheximide).”

| SMILES | anti-Biotin Western blot signal of AHA-labelled newly synthesized proteins (HEK293 cells [1]) | gross morphology of neurons compared to methionine controls ([2]; 12 DIV neurons expressing GFP reporter) | toxicity to neurons ([2]; primary/dissociated hippocampal neuronal cultures, equimolar AHA or methionine control) | increased protein degradation [3] | ubiquitination compared to buffer or methionine controls (HEK293 cells [4]) |
| --- | --- | --- | --- | --- | --- |
| COc1ccc(C[C@H]2NC[C@H](O)[C@H]2OC(C)=O)cc1 [Anisomycin] | No signal was detected |  |  |  |  |
| C[C@@H]1C[C@@H]([C@H](O)CC2CC(=O)NC(=O)C2)C(=O)[C@@H](C)C1 [Cycloheximide] | No signal was detected |  |  |  |  |
| [N-]=[N+]=NCC[C@H](N)C(=O)O [AHA, azidohomoalanine] |  | no change in the gross morphology | not toxic | no evidence of increased protein degradation | No increased ubiquitination |
